Assay results from article PMC7756392, “Syntheses of Thailandepsin B Pseudo‐Natural Products: Access to New Highly Potent HDAC Inhibitors via Late‐Stage Modification” (Chemistry (Weinheim an Der Bergstrasse, Germany), 2020).

Key:
Format in all cases: cell-based
HL60 cells = test: MTS cell viability assay, HL60; settings: for GI50 (in words): 72 h
Experimental: hHDAC1/6: Activity assays were performed in OptiPlateTM-96 F black microplates (PerkinElmer). Commercial available enzymes (human recombinant HDAC1; BPS Bioscience, catalog no. 50051 and human recombinant HDAC6; BPS Bioscience, catalog no. 50006) were used. Total assay volume of 60 µL contains 42 µl of assay buffer (50 mM Tris -HCl, pH 8.0, 137 mM NaCl, 2.7 mM KCl, 1 mM MgCl2, 0.2 mM TCEP and 1 mg/mL bovine serum albumin), 10 µL of enzyme solution in assay buffer, 3 µL of increasing concentrations of inhibitors in DMSO and 5 μL of the fluorogenic substrate ZMAL (Z -(Ac)Lys-AMC) (126 μM). After incubation (90 min, 37 °C) 60 µL of stop solution, containing 5 μL Trichostatin A (TSA) (33 μM) and 10 μL trypsin (6 mg/mL) in trypsin buffer (Tris-HCl 50 mM, pH 8.0, NaCl 100 mM), were added. After incubation (30 min at 37 °C) fluorescence signal (λex = 390 nm, λem = 460 nm) was measured on a BMG LABTECH POLARstar OPTIMA plate reader (BMG Labtechnologies, Germany).10 hHDAC8: Enzyme was obtained from cooperation partners (Romier).11 Assay was performed as described before. […] After incubation (30 min at 37 °C) fluorescence signal was determined as mentioned for HDAC1/6.12 […]
Cell proliferation was determined by using the Celltiter 96 AQueous nonradioactive Proliferation Assay (Promega). After 72h of incubation time with inhibitor or DMSO, 20 µL of a mixture (20:1) consisting of MTS (3-(4,5-dimethylthiazol-2-yl)-5-(3-carboxymethoxyphenyl)-2-(4-sulfophenyl-2H-tetrazolium) and PMS (phenazine methosulfate) were added to each well. Absorption was measured after another 2-4 h with a BMG LABTECH POLARstar OPTIMA plate reader (BMG Labtechnologies, Germany).
Experiments were performed in triplicates and GI50 values were calculated using the software Origin 2019. […]
CO2. […] After another 20 min of incubation, the fluorescence signal (λex = 390 nm, λem = 460 nm) was measured on a BMG LABTECH POLARstar OPTIMA plate reader (BMG Labtechnologies, Germany). […]

HDAC in HeLa cells = test: Cellular HDAC activity assay, HeLa; settings: for IC50: read-out: cellular HDAC inhibition IC50
Experimental: (§1) Cellular trypsin-based activity assay:13 1 x 10^4 Hela cells (50 µL) were seeded in sterile dark 96-well microtiter plates (Perkin Elmer) and incubated overnight at 37 °C and 5% CO2 atmosphere. The next day, the medium was aspirated and the cells were incubated with different inhibitor concentrations or DMSO, diluted in 50 µL m edium without supplements and phenol red. After 2 h incubation time, 50 µL of the HDAC substrate MAL (Boc -Lys(Ac)-AMC) were added to a final concentration of 150 µM and the plate was incubated for 2 h at 37°C and 5%
(§2) CO2. The reaction was stopped by adding 50 µL of stop solution (50 mM Tris, 137 mM NaCl, 1 mM MgCl2, 2.7 mM KCl, 1 µM TSA, 0.1% Igepal, 1 mg/ml Trypsin). After another 20 min of incubation, the fluorescence signal (λex = 390 nm, λem = 460 nm) was measured on a BMG LABTECH POLARstar OPTIMA plate reader (BMG Labtechnologies, Germany). […]

HDAC in HL60 cells = test: Cellular HDAC activity assay, HL60; settings: read-out: cellular HDAC inhibition IC50
Experimental: as §1, §2

SMILES | growth inhibition at 5 μM (in words) (HL60 cells; 5 μM) | HDAC inhibition in cells at 5 μM (in words) (HDAC in HeLa cells; 5 μM) | GI50 (in words) (HL60 cells) | IC50 (HDAC in HeLa cells) [µM] | IC50 (HDAC in HL60 cells) [µM]
CCCC[C@H]1NC(=O)C[C@@H](/C=C/CCC(=O)NO)OC(=O)C[C@H](O)[C@@H]([C@@H](C)CC)NC(=O)[C@@H](C)NC1=O [compound 8] | did not inhibit growth | no HDAC inhibition |  |  | 
CCCC[C@H]1NC(=O)C[C@@H](/C=C/CCSC(C)=O)OC(=O)C[C@H](O[Si](C)(C)C(C)(C)C)[C@@H]([C@@H](C)CC)NC(=O)[C@@H](C)NC1=O [compound 32] |  |  | micromolar | 58.6 ± 1.3 | 66.3 ± 3.5
CCCC[C@H]1NC(=O)C[C@@H](/C=C/CCSC(C)=O)OC(=O)C[C@H](O)[C@@H]([C@@H](C)CC)NC(=O)[C@@H](C)NC1=O [compound 33] |  |  | nanomolar | 0.034 ± 0.0022 | 0.0091 ± 0.0008
